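Following 48 hours of exposure in 96-well plates, responses at five concentrations were used to interpolate endpoints linearly. GI50 = concentration required for 50% inhibition of growth. TGI marks complete inhibition of growth.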
Columns and labels:
Assay in all cases: growth of human tumour cells (NCI), 48 h
[1] = test system: M14 melanoma
[2] = test system: SF-295 CNS
[3] = test system: MOLT-4 leukemia
[4] = test system: SNB-75 CNS
[5] = test system: OVCAR-8 ovarian
[6] = test system: CCRF-CEM leukemia
[7] = test system: 786-0 renal
[8] = test system: MDA-MB-435
[9] = test system: NCI/ADR-RES ovarian
[10] = test system: MDA-MB-231 breast

For `CC1(C)Oc2ccccc2[N+]([O-])=C1c1ccccc1`, the TGI [1] was greater than 100 µM, the TGI [2] was greater than 100 µM and the TGI [3] was greater than 100 µM. It also gave a TGI [4] greater than 100 µM, a TGI [5] greater than 100 µM and a TGI [6] greater than 100 µM. It also gave a TGI [7] greater than 100 µM.
`Cc1nc2ccccc2c(/C=C/c2ccccc2)c1C(=O)/C=C/c1ccccc1` was tested, and the GI50 [8] was 2.36 µM, the TGI [8] was 6.71 µM and the GI50 [2] was 2.8 µM. The TGI [2] was 8.36 µM, the GI50 [9] was 2.71 µM and the TGI [9] was 8.35 µM. It also gave a GI50 [5] of 2.11 µM, a TGI [5] of 5.67 µM and a GI50 [10] of 2.3 µM. The TGI [10] was 7.37 µM, the GI50 [6] was 2.51 µM and the TGI [6] was greater than 100 µM. It also gave a GI50 [7] of 1.61 µM and a TGI [7] of 3.02 µM.
`C[C@H](C(O)CC(=O)C(C)(C)O)[C@H]1CC[C@@]2(C)[C@@H]3CC[C@H]4C(C)(C)[C@@H](OC5OC(COC6OC(CO)C(O)C(O)C6O)C(O)C(O)C5O)CC[C@]4(C)C3=CC[C@]12C` (stereo partly specified) showed a TGI [1] greater than 100 µM, a TGI [8] greater than 100 µM and a TGI [2] greater than 100 µM. It also gave a TGI [4] greater than 100 µM, a TGI [5] greater than 100 µM and a TGI [10] greater than 100 µM. It also gave a TGI [6] greater than 100 µM and a TGI [7] greater than 100 µM.
`N/C(=N\N=C\c1ccc(O)c(O)c1)NO` showed a TGI [1] greater than 100 µM, a TGI [2] greater than 100 µM and a TGI [3] greater than 100 µM. For the same compound, the TGI [4] was greater than 100 µM, the TGI [5] was greater than 100 µM and the TGI [6] was greater than 100 µM. The TGI [7] was greater than 100 µM.
`CCC(C)(C)NS(=O)(=O)c1ccccc1` showed a TGI [1] greater than 100 µM, a TGI [2] greater than 100 µM and a TGI [3] greater than 100 µM. It also gave a TGI [4] greater than 100 µM, a TGI [5] greater than 100 µM and a TGI [6] greater than 100 µM. For the same compound, the TGI [7] was greater than 100 µM.
`CCOC(=O)NC(=O)c1cn(C2OC(COC(=O)CCCCCCCCC(=O)OCC3OC(n4cc(C(=O)NC(=O)OCC)c(=O)[nH]c4=O)C4OC(C)(C)OC34)C3OC(C)(C)OC32)c(=O)[nH]c1=O` (stereo unspecified) was tested, and the TGI [1] was greater than 100 µM, the TGI [2] was greater than 100 µM and the TGI [3] was greater than 100 µM. It also gave a TGI [4] greater than 100 µM, a TGI [5] greater than 100 µM and a TGI [6] greater than 100 µM. It also gave a TGI [7] greater than 100 µM.
`N.N.NCCCCCN.O=C([O-])CC(=O)[O-].O=C([O-])CC(=O)[O-].[Pt+4].[Pt+4]` was tested, and the GI50 [1] was greater than 100 µM, the TGI [1] was greater than 100 µM and the GI50 [2] was 73.1 µM. For the same compound, the TGI [2] was greater than 100 µM, the GI50 [3] was 65.5 µM and the TGI [3] was greater than 100 µM. For the same compound, the GI50 [4] was greater than 100 µM, the TGI [4] was greater than 100 µM and the GI50 [5] was greater than 100 µM. It also gave a TGI [5] greater than 100 µM, a GI50 [6] of 34 µM and a TGI [6] greater than 100 µM. The GI50 [7] was greater than 100 µM and the TGI [7] was greater than 100 µM.
Compound `CCCCCN(CCCCC)C(=O)[C@H](CCC(=O)OCc1ccccc1)NC(=O)c1cc2ccccc2[nH]1` has a TGI [1] greater than 100 µM, a TGI [2] greater than 100 µM and a TGI [3] greater than 100 µM. The TGI [4] was greater than 100 µM, the TGI [5] was greater than 100 µM and the TGI [6] was greater than 100 µM. The TGI [7] was greater than 100 µM.
With `Cc1ccc(-c2cc(=O)c3cc(C)c(C)c(C(=O)O)c3o2)cc1[N+](=O)[O-]` the TGI [1] was greater than 100 µM, the TGI [2] was greater than 100 µM and the TGI [3] was greater than 100 µM. It also gave a TGI [4] greater than 100 µM, a TGI [5] greater than 100 µM and a TGI [6] greater than 100 µM. The TGI [7] was greater than 100 µM.
`COc1c(Cl)[c]([Hg][O]C(C)=O)c(NCC(C)=O)c(OC)[c]1[Hg][O]C(C)=O` gave a GI50 [1] of 14.7 µM, a TGI [1] of 28.6 µM and a GI50 [2] of 20.2 µM. The TGI [2] was 45.2 µM, the GI50 [3] was 17.1 µM and the TGI [3] was 48.5 µM. For the same compound, the GI50 [4] was 13.9 µM, the TGI [4] was 32.5 µM and the GI50 [5] was 13.6 µM. It also gave a TGI [5] of 32.4 µM, a GI50 [6] of 10.3 µM and a TGI [6] of 34.4 µM. The GI50 [7] was 3.44 µM and the TGI [7] was 12.9 µM.
Work on `COc1ccc(C(=O)c2cc(C)c(OC)c(C)c2)c(OC)c1N(C(=O)CCl)C(=O)CCl` yielded a GI50 [1] of 0.0365 µM, a TGI [1] of 0.531 µM and a GI50 [2] of 0.0321 µM. For the same compound, the TGI [2] was 15.5 µM, the GI50 [3] was 0.172 µM and the TGI [3] was 24.2 µM. The GI50 [4] was 0.0274 µM, the TGI [4] was 27.3 µM and the GI50 [9] was 0.0311 µM. It also gave a TGI [9] of 1.48 µM, a GI50 [5] of 0.062 µM and a TGI [5] greater than 92.4 µM. The GI50 [10] was 0.149 µM, the TGI [10] was 18.9 µM and the GI50 [6] was 0.166 µM. It also gave a TGI [6] greater than 37.8 µM, a GI50 [7] of 0.0474 µM and a TGI [7] of 15.4 µM.
For `CCN(CC)CCOc1ccc(Cc2ccccc2)cc1`, the GI50 [1] was 17.3 µM, the TGI [1] was 34.6 µM and the GI50 [8] was 18.5 µM. For the same compound, the TGI [8] was 44.2 µM, the GI50 [2] was 13.2 µM and the TGI [2] was 31.4 µM. The GI50 [4] was 19 µM, the TGI [4] was 94.9 µM and the GI50 [9] was 26.2 µM. It also gave a TGI [9] greater than 100 µM, a GI50 [5] of 60.6 µM and a TGI [5] greater than 100 µM. The GI50 [10] was 28.2 µM, the TGI [10] was greater than 100 µM and the GI50 [7] was 27.6 µM. The TGI [7] was greater than 100 µM.
In the case of `C/C=C(\C)C(=O)N1c2ccccc2CC1c1c(C)[nH]c2ccccc12` (stereo unspecified), the TGI [1] is reported as greater than 100 µM, the TGI [2] is reported as greater than 100 µM and the TGI [3] is reported as greater than 100 µM. It also gave a TGI [4] greater than 100 µM, a TGI [5] greater than 100 µM and a TGI [6] greater than 100 µM. For the same compound, the TGI [7] was greater than 100 µM.
For `CC(C)C1NC(=O)[C@H](C)OC(=O)[C@@H](C(C)C)NC(=O)[C@@H](C)OC(=O)C(C(C)C)NC(=O)[C@H](C)OC1=O` (stereo partly specified), the TGI [1] was greater than 100 µM, the TGI [2] was greater than 100 µM and the TGI [3] was greater than 100 µM. For the same compound, the TGI [4] was greater than 100 µM, the TGI [5] was greater than 100 µM and the TGI [6] was greater than 100 µM. The TGI [7] was 47.2 µM.
`CC1(C)OC2COC(c3[nH]nc4c(=O)[nH]c(=O)[nH]c34)C2O1` (stereo unspecified) was tested, and the TGI [1] was greater than 100 µM, the TGI [8] was greater than 100 µM and the TGI [2] was greater than 100 µM. The TGI [3] was greater than 100 µM, the TGI [9] was greater than 100 µM and the TGI [5] was greater than 100 µM. For the same compound, the TGI [10] was greater than 100 µM and the TGI [7] was greater than 100 µM.
In the case of `Nc1nc(CC2(O)CCCCC2)cc(-c2ccccc2)n1`, the TGI [1] is reported as greater than 31.6 µM, the TGI [2] is reported as greater than 77.3 µM and the TGI [3] is reported as 53.9 µM. For the same compound, the TGI [4] was 98.1 µM, the TGI [5] was greater than 84.7 µM and the TGI [6] was greater than 95.9 µM. It also gave a TGI [7] of 43.2 µM.
`O=C(O)CNC(=O)C1NC(C(F)(F)F)(C(F)(F)F)OC1(C(F)(F)F)C(F)(F)F` (stereo unspecified) showed a TGI [1] greater than 100 µM, a TGI [8] greater than 100 µM and a TGI [2] greater than 100 µM. The TGI [3] was greater than 100 µM, the TGI [4] was greater than 100 µM and the TGI [9] was greater than 100 µM. It also gave a TGI [5] greater than 100 µM, a TGI [10] greater than 100 µM and a TGI [7] greater than 100 µM.
In the case of `O=C(COC(=O)c1cccc2c(=O)c3ccccc3[nH]c12)Nc1ccc(S(=O)(=O)Nc2ncccn2)cc1`, the TGI [1] is reported as greater than 100 µM, the TGI [2] is reported as greater than 100 µM and the TGI [3] is reported as 71 µM. For the same compound, the TGI [4] was 92.7 µM, the TGI [5] was greater than 100 µM and the TGI [6] was 67.4 µM. It also gave a TGI [7] greater than 100 µM.
`COc1cc2c(cc1OC)-c1ncc3cc(OC)c(OC)c(OC)c3c1C2` gave a GI50 [1] of 45.2 µM, a TGI [1] greater than 100 µM and a GI50 [8] of 16.2 µM. It also gave a TGI [8] of 42.6 µM, a GI50 [2] of 18.8 µM and a TGI [2] of 53.8 µM. The GI50 [4] was 72 µM, the TGI [4] was greater than 100 µM and the GI50 [9] was 19.1 µM. For the same compound, the TGI [9] was 89.2 µM, the GI50 [5] was 12 µM and the TGI [5] was 43.1 µM. It also gave a GI50 [10] of 2.54 µM, a TGI [10] of 48.7 µM and a GI50 [7] of 40 µM. It also gave a TGI [7] greater than 100 µM.
For `O=C(CC1SC(=Nc2ccccc2Cl)NC1=O)Nc1ccc(Cl)cc1` (stereo unspecified), the TGI [1] was greater than 100 µM, the TGI [2] was greater than 100 µM and the TGI [6] was greater than 100 µM. It also gave a TGI [7] greater than 100 µM.
